What all share (type): biochemical
One test has as its target T1, Ret (Homo sapiens, UniProt P07949).
T1 construct: P1378.pET-SF BI-PTP RET H661-R1012 HIS; made in house
T1 sequence (P07949 with tags, fused parts or gaps): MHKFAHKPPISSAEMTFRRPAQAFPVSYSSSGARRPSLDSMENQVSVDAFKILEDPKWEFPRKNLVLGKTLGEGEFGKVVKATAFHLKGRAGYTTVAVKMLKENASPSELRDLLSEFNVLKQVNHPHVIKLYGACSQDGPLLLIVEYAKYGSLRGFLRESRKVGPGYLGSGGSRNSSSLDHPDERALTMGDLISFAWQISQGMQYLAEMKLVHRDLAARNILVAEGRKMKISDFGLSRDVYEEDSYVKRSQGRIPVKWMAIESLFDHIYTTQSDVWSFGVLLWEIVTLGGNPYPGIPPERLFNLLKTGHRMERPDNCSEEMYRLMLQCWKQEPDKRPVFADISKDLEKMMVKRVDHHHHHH
Description: AlphaScreen kinase assay, Ret. To be noted: read-out: IC50, activity toward kinase Ret. Background: Bead proximity is the source of the signal in Alpha formats.

For the next test, the target named is T2, B-Raf (Homo sapiens, UniProt P15056).
T2 construct: purchased Upstate Biotechnology
T2 sequence (P15056 whole entry): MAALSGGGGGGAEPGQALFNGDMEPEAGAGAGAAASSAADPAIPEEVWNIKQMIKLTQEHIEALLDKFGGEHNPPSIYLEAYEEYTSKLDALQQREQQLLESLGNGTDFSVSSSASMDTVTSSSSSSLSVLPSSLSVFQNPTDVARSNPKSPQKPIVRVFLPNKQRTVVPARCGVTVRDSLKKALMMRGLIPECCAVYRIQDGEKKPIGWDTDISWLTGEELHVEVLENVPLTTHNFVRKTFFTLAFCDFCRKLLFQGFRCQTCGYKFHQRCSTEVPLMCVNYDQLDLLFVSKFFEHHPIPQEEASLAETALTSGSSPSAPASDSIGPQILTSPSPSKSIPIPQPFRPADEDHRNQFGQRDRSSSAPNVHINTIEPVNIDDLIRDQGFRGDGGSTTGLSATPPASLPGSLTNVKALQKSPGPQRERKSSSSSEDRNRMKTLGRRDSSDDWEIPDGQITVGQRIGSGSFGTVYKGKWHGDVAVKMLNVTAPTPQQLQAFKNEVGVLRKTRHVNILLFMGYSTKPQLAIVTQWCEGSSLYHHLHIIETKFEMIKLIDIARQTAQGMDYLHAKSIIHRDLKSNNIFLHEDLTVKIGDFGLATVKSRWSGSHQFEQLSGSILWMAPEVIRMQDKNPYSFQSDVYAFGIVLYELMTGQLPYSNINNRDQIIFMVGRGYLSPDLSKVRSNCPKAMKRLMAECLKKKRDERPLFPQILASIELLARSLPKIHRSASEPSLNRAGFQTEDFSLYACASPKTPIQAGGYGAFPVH
Kind of test: AlphaScreen kinase assay, B-Raf. Particulars: read-out: IC50, activity toward kinase B-Raf.

The target in another test is T3, B-Raf V600E (Homo sapiens, UniProt P15056, V600E).
T3 construct: P4254. pFastBacBD-CDC37 BRAF D437-K722-X, V600E; His6 with pFastBac HT leader (TEV site) (N); made in house; host or cells: Sf9 (baculovirus; chaperone CDC37 co-expressed)
T3 sequence (P15056 with tags, fused parts or gaps V600E): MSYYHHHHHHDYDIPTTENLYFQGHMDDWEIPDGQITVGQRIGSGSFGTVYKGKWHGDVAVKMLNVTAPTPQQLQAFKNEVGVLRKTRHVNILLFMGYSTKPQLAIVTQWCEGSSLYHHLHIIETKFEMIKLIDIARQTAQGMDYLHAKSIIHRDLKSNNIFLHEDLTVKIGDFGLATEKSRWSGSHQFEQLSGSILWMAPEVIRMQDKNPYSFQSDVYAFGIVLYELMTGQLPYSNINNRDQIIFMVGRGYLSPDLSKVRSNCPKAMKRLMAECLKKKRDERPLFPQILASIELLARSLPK
Kind of test: AlphaScreen kinase assay, B-Raf V600E. To be noted: read-out: IC50, activity toward kinase B-Raf V600E.

The next test concerns the target T4, FGFR1 (Homo sapiens, UniProt P11362, C488A/C584S).
T4 construct: P1351.pET N6 BI-PTP FGFR A458-E765-X C488A, C584S; made in house; host or cells: E. coli (PTP1B co-expressed)
Kind of test: AlphaScreen kinase assay, FGFR1. Particulars: read-out: IC50, activity toward kinase FGFR.

The target of a further test is T5, Fms (Homo sapiens, UniProt P07333).
T5 construct: purchased Upstate Biotechnology
T5 sequence (P07333 20-972): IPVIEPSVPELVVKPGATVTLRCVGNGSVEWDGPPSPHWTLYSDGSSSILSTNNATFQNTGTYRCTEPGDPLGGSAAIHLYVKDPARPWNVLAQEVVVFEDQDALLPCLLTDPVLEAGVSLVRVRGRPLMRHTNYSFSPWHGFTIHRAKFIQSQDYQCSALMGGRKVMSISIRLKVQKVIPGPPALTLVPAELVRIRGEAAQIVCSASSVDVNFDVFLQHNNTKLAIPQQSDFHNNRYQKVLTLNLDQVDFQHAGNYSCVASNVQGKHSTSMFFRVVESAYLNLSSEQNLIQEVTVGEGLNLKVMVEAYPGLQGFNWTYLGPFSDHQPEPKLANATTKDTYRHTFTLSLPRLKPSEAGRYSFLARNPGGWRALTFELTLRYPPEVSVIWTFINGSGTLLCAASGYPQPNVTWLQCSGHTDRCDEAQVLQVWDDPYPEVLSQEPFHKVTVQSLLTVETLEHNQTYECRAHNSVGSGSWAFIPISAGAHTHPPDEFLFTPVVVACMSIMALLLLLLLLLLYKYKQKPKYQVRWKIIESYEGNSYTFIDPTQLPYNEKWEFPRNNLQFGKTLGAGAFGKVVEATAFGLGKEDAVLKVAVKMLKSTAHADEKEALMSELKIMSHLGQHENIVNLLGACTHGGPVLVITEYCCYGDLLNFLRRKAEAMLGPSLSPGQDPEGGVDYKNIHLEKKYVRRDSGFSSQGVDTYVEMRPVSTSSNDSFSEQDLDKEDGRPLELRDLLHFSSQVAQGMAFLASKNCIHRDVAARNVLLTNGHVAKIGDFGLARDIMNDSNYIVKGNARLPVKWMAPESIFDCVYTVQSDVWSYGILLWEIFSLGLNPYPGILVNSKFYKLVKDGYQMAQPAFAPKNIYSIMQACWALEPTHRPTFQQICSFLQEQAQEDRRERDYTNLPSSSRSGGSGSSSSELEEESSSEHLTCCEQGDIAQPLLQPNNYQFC
Kind of test: AlphaScreen kinase assay, Fms. Particulars: read-out: IC50, activity toward kinase Fms.

Another test deals with T6, Kit (Homo sapiens, UniProt P10721).
T6 construct: P1332.N6 BI PTP KIT M552-K948-X COD; His6 (N); made in house; host or cells: E. coli (PTP1B co-expressed)
T6 sequence (P10721 with tags, fused parts or gaps): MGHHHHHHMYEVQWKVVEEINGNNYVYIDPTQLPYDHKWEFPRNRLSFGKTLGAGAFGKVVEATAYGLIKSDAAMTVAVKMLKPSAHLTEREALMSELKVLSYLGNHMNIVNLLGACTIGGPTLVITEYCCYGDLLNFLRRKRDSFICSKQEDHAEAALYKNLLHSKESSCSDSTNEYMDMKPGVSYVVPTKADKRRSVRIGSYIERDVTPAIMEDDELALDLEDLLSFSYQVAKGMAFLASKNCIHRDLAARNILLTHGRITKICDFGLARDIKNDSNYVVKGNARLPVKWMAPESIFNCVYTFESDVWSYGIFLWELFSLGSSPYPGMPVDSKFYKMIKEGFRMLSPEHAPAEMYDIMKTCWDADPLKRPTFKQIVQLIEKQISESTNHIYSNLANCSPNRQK
Description: AlphaScreen kinase assay, Kit. Particulars: read-out: IC50, activity toward kinase Kit.

Structures are written as SMILES. Where only a bound is given, the exact number is not on record here.

T4 sequence (P11362 458-765 C488A/C584S): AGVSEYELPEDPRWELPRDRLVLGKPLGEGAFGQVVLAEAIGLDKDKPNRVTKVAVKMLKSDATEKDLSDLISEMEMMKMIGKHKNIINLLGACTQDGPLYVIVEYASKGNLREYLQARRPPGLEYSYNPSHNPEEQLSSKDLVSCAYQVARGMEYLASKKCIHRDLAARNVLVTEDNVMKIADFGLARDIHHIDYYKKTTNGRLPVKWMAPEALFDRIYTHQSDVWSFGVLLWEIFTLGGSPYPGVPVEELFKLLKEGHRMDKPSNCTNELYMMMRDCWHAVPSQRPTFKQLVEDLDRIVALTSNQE

Turning to `Cc1c(Cl)cc(F)cc1S(=O)(=O)NCc1cc2cccnc2[nH]1` [Compound P-0533], the IC50 – broadly, the point on the concentration scale where inhibition reaches its midpoint – on Ret was at most 10 µM.

As to `CC(=O)Nc1cccc(-c2ccnc3[nH]cc(C(=O)c4cc(F)ccc4C)c23)c1` [Compound P-1126], the IC50 at Ret is at most 10 µM.

For `Fc1ccc(-c2c(CNCc3ccccc3)[nH]c3ncccc23)cc1` [Compound P-0517], the IC50 on Ret was at most 10 µM.

As to `Cc1cc(C(=O)c2c[nH]c3nccc(-c4cccc(C(N)=O)c4)c23)no1` [Compound P-1036], the IC50 at Ret is at most 10 µM.

`Cc1ccc(F)cc1C(=O)c1c[nH]c2nccc(-c3cccc(N)c3)c12` [Compound P-1135]: the IC50 at Ret was at most 10 µM.

In the case of `CS(=O)(=O)c1cccc(-c2ccnc3[nH]cc(C(=O)c4ccc(Cl)cc4)c23)c1` [Compound P-1198], on Ret, the IC50 was at most 10 µM.

Turning to `Cc1ccc(F)cc1C(=O)c1c[nH]c2nccc(-c3cccnc3)c12` [Compound P-1121], the half-inhibitory concentration (IC50) at Ret is at most 10 µM.

Regarding `COc1ccc(-c2ccnc3[nH]cc(C(=O)c4ccccc4F)c23)cn1` [Compound P-0245], the IC50 on Ret is at most 10 µM.

As for `COc1cccc(C(=O)c2c[nH]c3nccc(-c4cccc(NS(C)(=O)=O)c4)c23)c1` [Compound P-1185], the IC50 on Ret was at most 10 µM.

For the compound `Cc1ccccc1C(=O)c1c[nH]c2nccc(-c3ccc(Cl)cc3)c12` [Compound P-1201], the IC50 at Ret is at most 10 µM.

Regarding `Fc1cnc(F)c(F)c1Cc1c[nH]c2ncc(-c3ccsc3)cc12` [Compound P-0596], at Ret, the 50% inhibitory concentration (IC50) is at most 10 µM.

Regarding `Cc1ccc(F)cc1C(=O)c1c[nH]c2nccc(-c3cccc(S(C)(=O)=O)c3)c12` [Compound P-1129], the IC50 on Ret was at most 10 µM.

For the compound `CS(=O)(=O)Nc1cccc(-c2ccnc3[nH]cc(C(=O)c4ccc(Cl)cc4)c23)c1` [Compound P-0678], the IC50 on Ret was at most 10 µM.

For `Cc1cc(C(=O)c2c[nH]c3ncc(Br)cc23)no1` [Compound P-0608], the IC50 on Ret was at most 10 µM.

As for `Cc1cc(C(=O)c2c[nH]c3ncc(-c4cccc(/C=C/C(=O)O)c4)cc23)nn1C` [Compound P-1137], the IC50 at Ret is at most 10 µM.

With `COc1ccc(F)c(C(=O)c2c[nH]c3ncc(Br)cc23)c1` [Compound P-0284], the IC50 on B-Raf, at B-Raf V600E, on FGFR1, at Fms and on Kit was at most 10 µM throughout.

`Cc1cc(C(=O)c2c[nH]c3nccc(-c4ccc(Cl)cc4)c23)no1` [Compound P-1178]: the IC50 on Ret was at most 10 µM.

In the case of `O=C(c1cccc(Cl)c1Cl)c1c[nH]c2nccc(-c3ccc(Cl)cc3)c12` [Compound P-1130], the IC50 on Ret is at most 10 µM.

For `O=C(c1ccccc1)c1c[nH]c2ncc(-c3ccsc3)cc12` [Compound P-1193], the IC50 on Ret is at most 10 µM.

With `Cc1ccc(NC(=O)Nc2cccc(C(=O)c3c[nH]c4ncccc34)c2)cc1` [Compound P-1718, 1-[3-(1H-Pyrrolo[2,3-b]pyridine-3-carbonyl)-phenyl]-3-p-tolyl-urea], the IC50 on B-Raf, on B-Raf V600E, at Fms and on Kit was at most 10 µM throughout.

As to `[O-][S+](c1ccccc1)c1c[nH]c2ncc(Br)cc12` (stereo not drawn) [Compound P-1097], the IC50 at Ret was at most 10 µM.

With `COc1cccc(C(=O)c2c[nH]c3nccc(-c4ccc(Cl)cc4)c23)c1` [Compound P-1191], the 50% inhibitory concentration (IC50) at Ret was at most 10 µM.

With `Cc1nc(-c2ccc(S(=O)(=O)NCc3c[nH]c4ncccc34)s2)cs1` [Compound P-0735], the IC50 on Ret is at most 10 µM.

As to `O=S(=O)(NCc1c[nH]c2ncccc12)c1cc(Br)cc(Cl)n1` [Compound P-0726], on Ret, the IC50 was at most 10 µM.

Consider `CC(=O)Nc1cccc(-c2ccnc3[nH]cc(C(=O)c4ccc(Cl)cc4)c23)c1` [Compound P-1075], for which the IC50 on Ret was at most 10 µM.

Consider `Cn1cc(-c2cnc3[nH]cc(C(=O)c4c(F)ccc(NS(=O)(=O)c5cccc(F)c5)c4F)c3c2)cn1` [Compound P-1997, N-{2,4-Difluoro-3-[5-(1-methyl-1H-pyrazol-4-yl)-1H-pyrrolo[2,3-b]pyridine-3-carbonyl]-phenyl}-3-fluoro-benzenesulfonamide], for which the IC50 at B-Raf, at B-Raf V600E, on Fms and at Kit was at most 10 µM each time.

For the compound `CS(=O)(=O)Nc1ccc(F)c(C(=O)c2c[nH]c3ncccc23)c1` [Compound P-0881], on Ret, the IC50 was at most 10 µM.

For `CCCS(=O)(=O)Nc1ccc(F)c(C(=O)c2c[nH]c3ncc(-c4cc(C)c(C#N)c(C)c4)cc23)c1F` [Compound P-1980, Propane-1-sulfonic acid {3-[5-(4-cyano-3,5-dimethyl-phenyl)-1H-pyrrolo[2,3-b]pyridine-3-carbonyl]-2,4-difluoro-phenyl}-amide], the IC50 at B-Raf, at B-Raf V600E, at Fms and on Kit was at most 10 µM throughout.

Consider `CS(=O)(=O)c1cccc(-c2ccnc3[nH]cc(C(=O)c4cccc(Cl)c4Cl)c23)c1` [Compound P-1134], for which the IC50 at Ret was at most 10 µM.

In the case of `O=S(=O)(NCc1c[nH]c2ncccc12)C(F)(F)F` [Compound P-0412], the IC50 at Ret was at most 10 µM.

For `Cn1cc(-c2cnc3[nH]cc(C(=O)c4c(F)ccc(NS(=O)(=O)c5ccc(C(F)(F)F)cc5)c4F)c3c2)cn1` [Compound P-1996, N-{2,4-Difluoro-3-[5-(1-methyl-1H-pyrazol-4-yl)-1H-pyrrolo[2,3-b]pyridine-3-carbonyl]-phenyl}-4-trifluoromethyl-benzenesulfonamide], the IC50 at B-Raf, on B-Raf V600E, at Fms and at Kit was at most 10 µM each time.

On to `Cc1cc(C(=O)c2c[nH]c3ncc(-c4cccc(/C=C/C(=O)O)c4)cc23)no1` [Compound P-1072], for which, at Ret, the IC50 is at most 10 µM.

With `Cc1cccc(NC(=O)Nc2cccc(C(=O)c3c[nH]c4ncccc34)c2)c1` [Compound P-1719, 1-[3-(1H-Pyrrolo[2,3-b]pyridine-3-carbonyl)-phenyl]-3-m-tolyl-urea], the IC50 at B-Raf, on B-Raf V600E, on Fms and on Kit was at most 10 µM in each case.

As for `Cc1ccc(F)cc1C(=O)c1c[nH]c2nccc(-c3cccc(/C=C/C(=O)O)c3)c12` [Compound P-0985], the IC50 on Ret is at most 10 µM.

`COc1ccc(-c2ccnc3[nH]cc(C(=O)c4cc(F)ccc4C)c23)cn1` [Compound P-1192]: the IC50 on Ret was at most 10 µM.

In the case of `O=C(Nc1ccc(Cl)cc1)Nc1cccc(C(=O)c2c[nH]c3ncccc23)c1` [Compound P-1709, 1-(4-Chloro-phenyl)-3-[3-(1H-pyrrolo[2,3-b]pyridine-3-carbonyl)-phenyl]-urea], the IC50 on B-Raf, at B-Raf V600E, at Fms and at Kit was at most 10 µM in each case.

On to `COc1ccc(-c2ccnc3[nH]cc(C(=O)c4ccccc4C)c23)cn1` [Compound P-0536], for which the IC50 at Ret was at most 10 µM.

In the case of `O=C(c1c(F)ccc(NS(=O)(=O)c2ccc(F)cc2)c1F)c1c[nH]c2ncc(Cl)cc12` [Compound P-1840, N-[3-(5-Chloro-1H-pyrrolo[2,3-b]pyridine-3-carbonyl)-2,4-difluoro-phenyl]-4-fluoro-benzenesulfonamide], the IC50 at B-Raf, at B-Raf V600E, at Fms and on Kit was at most 10 µM in each case.

For the compound `COc1ccc(NC(=O)Nc2cccc(C(=O)c3c[nH]c4ncccc34)c2)cc1` [Compound P-1705, 1-(4-Methoxy-phenyl)-3-[3-(1H-pyrrolo[2,3-b]pyridine-3-carbonyl)-phenyl]-urea], the IC50 on B-Raf, at B-Raf V600E, at Fms and at Kit was at most 10 µM each time.

With `CCCS(=O)(=O)Nc1ccc(F)c(C(=O)c2c[nH]c3ncc(-c4ccc(OCCOC)cc4)cc23)c1F` [Compound P-1998, Propane-1-sulfonic acid (2,4-difluoro-3-{5-[4-(2-methoxy-ethoxy)-phenyl]-1H-pyrrolo[2,3-b]pyridine-3-carbonyl}-phenyl)-amide], the IC50 at B-Raf, on B-Raf V600E, at Fms and on Kit was at most 10 µM in each case.

In the case of `O=C(c1c(F)ccc(NS(=O)(=O)c2ccsc2)c1F)c1c[nH]c2ncc(Br)cc12` [Compound P-1798, Thiophene-3-sulfonic acid [3-(5-bromo-1H-pyrrolo[2,3-b]pyridine-3-carbonyl)-2,4-difluoro-phenyl]-amide], the 50% inhibitory concentration (IC50) at B-Raf, at B-Raf V600E, at Fms and on Kit was at most 10 µM each time.

Source of the values: patent publication US8415469B2, “Compounds and methods for kinase modulation, and indications therefor” (Plexxikon Inc., priority 2005, dated 2013).
